This is an account of results in patent US6958360B2, “Attractant pheromone for the Colorado potato beetle” (The United States of America as represented by the …, priority 2001, dated 2005).

Each structure is given as a SMILES string. Marks after values point to notes of the source that are not given here.

One test concerns CPB adult antenna. The experiment in a line: Coupled GC/electroantennogram detection (GC/EAD, EAG). Also noted: species or system Leptinotarsa decemlineata. As for the experimental part:
Vertical bars represent standard errors (N=6, 3 males and 3 females).
GC/EAD analysis of volatile collections: One microlitre samples of volatile collections were injected into a Hewlett Packard™ Model 5890A gas chromatograph (GC) equipped with an HP-5 capillary column (crosslinked 5% PH ME Siloxane; film thickness 0.25 μm; length 30 m; i.d. 0.25 mm) and flame ionization detector (FID). The effluent from the column was split using a Gerstel™ GraphPack-3D/2 splitter with a ratio of ˜1 to the GC (FID): 4 to an electroantennogram preparation of a CPB adult (EAD). The EAD preparation was an adult CPB antenna removed and mounted between two glass capillary electrodes filled with 0.1M NaCl. Ag—AgCl wires in the glass capillaries. An effluent conditioning assembly to carry GC effluent over a CPB antennal preparation, hardware, and software for data collection and analyses using a computer were obtained from SYNTECH (Hilversum, the Netherlands). After an initial temperature of 50° C. held for 2 minutes following injection, the GC oven increased at 15° C./min to 235° C. which was held for 8 minutes.
Sensitivity of antennal olfactory receptors for the racemate and optical isomers of the male specific compound were tested using coupled GC/EAD and single sensillum recording techniques. GC/EAD tests involved injection of 1 μl of serial dilutions of 3,7-dimethyl-2-oxo-oct-6-ene-1,3-diol (CPB I).

In test [1] the test system is Colorado potato beetle (CPB). Nature of the test: Field test, baited pitfall traps. It counts as in vivo, Leptinotarsa decemlineata. The procedure: Insects: Insects were maintained under the same regimen as for laboratory bioassays. Prior to release in the field, adult CPB were combined into pint containers with moistened paper and potato foliage in groups of 25. Insects were removed from foliage ca. 3 hours prior to release.
Chemical treatments: (S)-CPB I vs. control. CPB I was dissolved into a carrier solution of 20% polyethylene glycol, 42% methanol, 25% glycerol, and 13% distilled water at a concentration of 1 μg/μl. For treatment lures, 500 μl were injected into 1″ long cigarette filters (500 μg CPBI/lure). Control lures consisted of 1″ cigarette filters treated with 500 μl of the carrier solution. Lures were prepared and placed into plastic zip-lock bags for transport to the field. (S)-CPB I+3-component plant blend vs. 3-component plant blend. (Z)-3-hexenyl acetate, (±)-linalool, and methyl salicylate (10 μl each) were added to 3 ml of the carrier solution for a total concentration of 1%. This solution was split into two 1.5 ml samples and CPB I dissolved into one of the samples at a concentration of 1 μg/μl. One treatment consisted of 500 μl of 1% 3-component plant blend injected into 1″ cigarette filters, 500 μl of 1% 3-component plant blend+1 μg/μl CPB I (500 μg CPB I/lure) injected into 1″ cigarette filters comprised the second treatment. Lures were prepared and placed into zip-lock bags for transport to the field.
Experimental procedure: Six pitfall traps (22 cm diam.×21 cm depth) were set in a hexagonal pattern 6 m diameter in an isolated grass field mowed one day prior to release of insects. One lure was attached to a 1 m vertical yellow posts set through the center of each pitfall trap, with treatment and controls alternating around the hexagonal array. Tacky-trap was laced along the rim of each pitfall trap, and on the center post at trap level, to prevent insect escape. […]
Statistical analysis: Field tests were assessed for significant differences by a paired t-test (Ostle, B., Statistics in Research (1963), 2nd ed., The Iowa State University Press, Ames, Iowa).

In the case of `CC(C)=CCC[C@](C)(O)C(=O)CO` [(S)-CPB I, (S)-3,7-dimethyl-2-oxo-oct-6-ene-1,3-diol], the “Mean EAG (in words)” value with CPB adult antenna (10 ng injection, males and females combined) is “significantly greater for the (S)-enantiomer than the (R)-enantiomer”. Also, the “EAD response to compound in volatile collections (in words)” value with CPB adult antenna (volatiles from potato plants / CPB feeding on plant) is “a large EAD was consistently present”. The “Mean number of CPB captured, Males” value in test [1] (500 μg CPB I/lure, mean of three replicates, 100 released, control 2.67) is 9.00*. The “Mean number of CPB captured, Females” value in test [1] (500 μg CPB I/lure, mean of three replicates, control 1.33) is reported as 7.33*. The “Mean number of CPB captured, Total” value in test [1] (combined mean of six replicates, control 2.00) is recorded as 8.17**.
